Test results: US11789012B2, “Cell death biomarker” (UCL Business PLC, priority 2016, dated 2023)

How the values were obtained:
MPM cell lines = test: Combination drug screen with rTRAIL as anchor drug; assay type: cell-based, Human; settings: otherwise resistant cells; delta AUC synergy metric
Method: FIG. 7A is a volcano plot showing drug-genome interactions when rTRAIL was used as an anchor drug in combination with the library of 94 single agent compounds. Synergy was described using delta AUC metric. FIGS. 7B & 7C are graphs showing the effect of rTRAIL on cell viability of MPM cells in the presence of LCL161. TRAIL resistant MPM cells were treated with either 0-1000 ng/ml of TRAIL alone or a combination of 5 μM LCL161 and 0-1000 ng/ml of TRAIL for 24 hours and cell death was quantified by Annexin V/DAPI assay. FIG. 7D is a graph showing the effect of rTRAIL on cell viability of cells in the presence of the IAP inhibitor, LCL161. BAP1-transduced or BAP1 C91A-transduced H226 cells were treated either with 0-1000 ng/ml of TRAIL alone or combination of 5 μM LCL161 and 0-1000 ng/ml of TRAIL for 24 hours and cell death was quantified by Annexin V/DAPI assay.
Manual “single dose” combination screening was undertaken using 96 well formats. Cells were plated on day 1 in previously optimized seeding densities in 180 μl if media. On day 2 20 μl of a 10× concentration of […] was added. Cells were then allowed to grow for 72 hrs or 6 days and fixed at the end of the assay. Drug wells were compared to DMSO treated control wells.
Single agent high throughput 5 point viability screening was undertaken in 384 well formats using robotic liquid handling with fixing with 4% paraformaldehyde and staining for viability with Syto60 nucleic acid dye (Invitrogen) (see below).
A binary event matrix was compiled for the cell lines in the mesothelioma screen by aggregating copy number and exome data and this was used as input classifiers for genomic correlation. Data from this therapeutic screen was then analysed using a Multivariate Analysis of Variance (MANOVA) to annotate the sensitizing effect of genotype on dose response.

NCI-H226 = test: Annexin V/DAPI cell death assay, H226 parental and BAP1-transduced lines; assay type: cell-based, Human; settings: 100 ng/ml, 24 hours; untransduced, BAP1-expressing and catalytically dead BAP1-expressing H226
Method: FIG. 5A is an immunoblot for BAP1 protein in BAP1 null mesothelioma lines following transfection with empty vector and BAP1 expression vector. […] FIG. 5C is a graph showing the effect of rTRAIL on cell viability of an untransduced H226 cell line, a BAP1 (transduced) cell line, and a H226 cell line with the NLS deleted.
Untransduced BAP1-negative H226 cells, BAP1-expressing and catalytically dead BAP1-expressing H226 cells were treated with 100 ng/ml of FASL, TRAIL and TNF-alpha for 24 hours and cell death was quantified by Annexin V/DAPI assay. *p<0.05 indicating significant difference between untransduced H226 cells H226 BAP1 expressing cells. NS no significant difference between untransduced H226 cells and BAP1 C91A transduced cells. #p<0.05 indicating significant difference between untransduced H226 cells and BAP1 C91A transduced cells.
Adherent mesothelioma cell lines were plated in a 96 well plate at approximately 10000 cells per well. Cells were plated and given 1 day to adhere at which time drug was added. After 48 hrs media, including floating cells, was collected from each well. The remaining adherent cells were washed with PBS and mobilised with 0.05% trypsin in EDTA. All cells were collected into tubes containing the previously removed media and pelleted by centrifugation (300 g, 5 minutes). Cells were then re-suspended in 1× Annexin V binding buffer with 10 μl/1 ml concentration of Annexin V-647 antibody (Invitrogen) and incubated for 15 minutes at room temperature. DAPI ([…]) was then added to each sample before flow cytometry analysis as below. Annexin V−/DAPI− cells were judged to be viable, AnnexinV+/DAPI− cells were considered to be undergoing apoptosis (early apoptotic phase), and Annexin V+/DAPI+ cells were considered late apoptotic or necrotic, and recorded as dead.

Molecule	effect on DRL-induced apoptosis in combination with rTRAIL (MPM cell lines)	sensitivity of H226 cells to cell death-inducing ligand, dependence on BAP1 catalytic domain (NCI-H226)
CN[C@@H](C)C(=O)N[C@H](C(=O)N1CCC[C@H]1c1nc(C(=O)c2ccc(F)cc2)cs1)C1CCCCC1 [LCL161]	increase the efficacy of DRL-induced apoptosis	–
COc1ccc(C(=O)CC2(O)C(=O)Nc3c(Cl)ccc(Cl)c32)cc1 (centres unmarked) [YK-4279]	increase the efficacy of DRL-induced apoptosis	–
CNC(=O)c1cc(Oc2ccc(NC(=O)Nc3ccc(Cl)c(C(F)(F)F)c3)cc2)ccn1 [sorafenib]	increase the efficacy of DRL-induced apoptosis	–
TNFα	–	regulates the sensitivity
FASL: cell death-inducing ligand, death receptor ligand (protein, UniProt P48023 130-281, looked up) Tumor necrosis factor ligand …: QIGHPSPPPEKKELRKVAHLTGKSNSRSMPLEWEDTYGIVLLSGVKYKKGGLVINETGLYFVYSKVYFRGQSCNNLPLSHKVYMRNSKYPQDLVMMEGKMMSYCTTGQMWARSSYLGAVFNLTSADHLYVNVSELSLVNFEESQTFFGLYKL	–	regulates the sensitivity
